Our source for the Kd, EC50 and IC50 values is patent US11518764B2, “Substituted heteroaryls as inhibitors of the BCL6 BTB domain protein-protein interaction” (Ontario Institute for Cancer Research (OICR), priority 2018, dated 2022).

One test has as its target BCL6 BTB domain (Homo sapiens (Human), UniProt P41182). Kind of test: Surface plasmon resonance (SPR) assay. It is filed as binding. To be noted: BCL6 BTB domain captured on SA chip, single cycle kinetics. A general note: In SPR one partner is held on a chip, and binding of the other changes the refractive index at the surface.
Test [1] deals with BCL6 reporter construct (3xBCL6-TK-Luc) in SuDHL4 cells. Briefly: Cell-based luciferase assay. Conditions: Homo sapiens, SU-DHL-4, 48 h, read-out: Luciferase-Assay EC50, uM), SuDHL4-3xBCL6-TK-Luc cells, two days, high dose 10 uM. In a few lines: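 SuDHL4 cells stably carrying a 3×BCL6-site TK-promoter firefly luciferase reporter, seeded at 15,000 cells/well, were dosed over a 10-point range (top 10 uM) and grown two days at 37 °C, 5% CO2. Luminescence then read after adding neolite reagent at room temperature.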

A further test relates to Karpas422 cells. Kind of test: Tumor cell growth inhibition assay. It is filed as cell-based. Conditions: Homo sapiens, KARPAS-422, 144 h, read-out: Tumor Growth Inhibition in Karpas-422 (IC50, uM), Karpas422 cells, six days, ATPlite. An outline of the steps: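 Growth inhibition was measured by ATPlite luminescence after six days of culture at 37° C. in 5% CO2. Karpas422 cells were seeded at 2,000 per well in Alpha-MEM plus 10% FBS. Compounds were given as a 10-point concentration series with a highest dose of 5 uM.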

Usually Kd stands for the concentration at which binding is half-saturated. Low readings indicate a tighter complex, high ones a looser complex. Broadly, the EC50 is the concentration giving half of the maximal effect. A word on the IC50: it is the concentration that inhibits the measured activity by half. Turning to `Cn1cnc2c(c(-c3cc(C(N)=O)c(O)c(F)c3F)cn2CC(=O)Nc2cc(N3CCCC3)ncc2Cl)c1=O` [Compound I-298], binding on BCL6 BTB domain was put at a Kd of 32.4 nM. Besides, in test [1], the EC50 worked out at 0.399 µM. The IC50 in the test on Karpas422 cells was found to be 0.883 µM.
The like results for `Cn1cnc2c(c(-c3cc(C(N)=O)c(O)c(F)c3F)cn2CC(=O)Nc2cc(N3CC4COCC4C3)ncc2Cl)c1=O` (stereo not drawn) [Compound I-299] were, in that order, 31.4 nM, 0.521 µM and 0.685 µM.
The corresponding values for `C[C@H]1CN(CC2CC2)CCN1c1cc(NC(=O)Cn2cc(-c3cc(Cl)c(O)c(C(N)=O)c3)c3c(=O)n(C)cnc32)c(Cl)cn1` [Compound I-301] are 19.6 nM, 0.21 µM and 0.252 µM.
The corresponding values for `C[C@H]1COCCN1c1cc(NC(=O)Cn2cc(-c3cc(C(N)=O)c(O)c4c3OCO4)c3c(=O)n(C)cnc32)c(Cl)cn1` [Compound I-302] are 5.05 nM, 0.0865 µM and 0.0528 µM.
The compound `C[C@H]1CN(CC2CC2)CCN1c1cc(NC(=O)Cn2cc(-c3cc(F)c(O)c(C(N)=O)c3)c3c(=O)n(C)cnc32)c(Cl)cn1` [Compound I-303] returned a dissociation constant Kd at BCL6 BTB domain of 6.36 nM. In addition, the EC50 in test [1] worked out at 0.0493 µM. In addition, in the test on Karpas422 cells, the half-inhibitory concentration (IC50) was 0.0323 µM.
The like results for `C[C@H]1CN(C)CCN1c1cc(NC(=O)Cn2cc(-c3cc(C(N)=O)c(O)c(F)c3F)c3c(=O)n(CC#Cc4cnn(C)c4)cnc32)c(Cl)cn1` [Compound I-304] were, in that order, 6.56 nM, 0.228 µM and 0.314 µM.
As to `Cc1nc2c(c(-c3cc(C(N)=O)c(O)c(F)c3F)cn2CC(=O)Nc2cc(N3CCN(C)CC3)ncc2Cl)c(=O)n1C` [Compound I-305], the Kd on BCL6 BTB domain amounted to 70.5 nM. In addition, the EC50 in test [1] worked out at 0.647 µM. Besides, the IC50 in the test on Karpas422 cells is 1.32 µM.
The like results for `Cc1nc2c(c(-c3cc(Cl)c(O)c(C(N)=O)c3)cn2CC(=O)Nc2cc(N3CCN(C)CC3)ncc2Cl)c(=O)n1C` [Compound I-306] were, in that order, 15.8 nM, 0.106 µM and 0.265 µM.
The corresponding values for `Cc1nc2c(c(-c3cc(C(N)=O)c(O)c4c3OCO4)cn2CC(=O)Nc2cc(N3CCOC[C@@H]3C)ncc2Cl)c(=O)n1C` [Compound I-308] are 2.05 nM, 0.0368 µM and 0.0161 µM.
The like results for `Cc1nc2c(c(-c3cc(C(N)=O)c(O)c4c3OCCO4)cn2CC(=O)Nc2cc(N3CCOC[C@@H]3C)ncc2Cl)c(=O)n1C` [Compound I-309] were, in that order, 146 nM, 1.02 µM and 2.55 µM.
At BCL6 BTB domain, `C[C@H]1CN(Cc2ccccc2)CCN1c1cc(NC(=O)Cn2cc(-c3cc(C(N)=O)c(O)c(F)c3F)c3c(=O)n(C)cnc32)c(Cl)cn1` [Compound I-314] gave an equilibrium dissociation constant (Kd) of 117 nM. For the same compound, in test [1], the EC50 is 0.901 µM. For the same compound, in the test with Karpas422 cells, the half-maximal inhibitory concentration (IC50) stood at 6.7 µM.
The like results for `Cc1nc2c(c(-c3cc(Cl)c(O)c(C(N)=O)c3)cn2CC(=O)Nc2cc(N3CCOC[C@@H]3C)nc(F)c2Cl)c(=O)n1C` [Compound I-315] were, in that order, 14.2 nM, 0.114 µM and 0.147 µM.
The corresponding values for `Cc1nc2c(c(-c3cc(C(N)=O)c(O)c(F)c3F)cn2CC(=O)Nc2cc(N3CCOC[C@@H]3C)nc(F)c2Cl)c(=O)n1C` [Compound I-316] are 24.1 nM, 0.243 µM and 0.376 µM.
In the case of `C[C@H]1COCCN1c1cc(NC(=O)Cn2cc(-c3cc(C(N)=O)c(O)c(F)c3F)c3c(=O)n(C)cnc32)c(Cl)c(F)n1` [Compound I-317], on BCL6 BTB domain, the Kd came out at 54.9 nM. The 50% effective concentration (EC50) in test [1] came out at 0.633 µM. Also, in the test with Karpas422 cells, the IC50 is 0.467 µM.
The compound `Cn1cnc2c(c(-c3cc(C(N)=O)c(O)c(F)c3F)cn2CC(=O)Nc2cc(N3CCOCC3)nc(F)c2Cl)c1=O` [Compound I-318] displayed an equilibrium dissociation constant (Kd) on BCL6 BTB domain of 51.8 nM. Further, the 50% effective concentration (EC50) in test [1] was 0.228 µM. For the same compound, in the test with Karpas422 cells, the IC50 stood at 0.319 µM.
The corresponding values for `C[C@H]1COCCN1c1cc(NC(=O)Cn2cc(-c3cc(F)c(O)c(C(N)=O)c3)c3c(=O)n(C)cnc32)c(Cl)c(F)n1` [Compound I-319] are 3.96 nM, 0.104 µM and 0.0994 µM.
The like results for `CN1CC2CCC(C1)N2c1cc(NC(=O)Cn2cc(-c3cc(C(N)=O)c(O)c(F)c3F)c3c(=O)n(C)cnc32)c(Cl)cn1` [Compound I-320] were, in that order, 48.4 nM, 1.15 µM and 0.979 µM.
With `C[C@H]1COCCN1c1cc(NC(=O)Cn2cc(-c3cc(C(N)=O)c(O)c(F)c3F)c3c(=O)n(CC#Cc4cnn(C)c4)cnc32)c(Cl)cn1` [Compound I-321], the Kd on BCL6 BTB domain came to 9.19 nM. In addition, in test [1], the concentration for a half-maximal effect (EC50) was found to be 0.405 µM. The IC50 in the test on Karpas422 cells is 0.437 µM.
The corresponding values for `C=C(C)c1nc2c(c(-c3cc(Cl)c(O)c(C(N)=O)c3)cn2CC(=O)Nc2cc(N3CCN(C)C[C@@H]3C)ncc2Cl)c(=O)n1C` [Compound I-322] are 34 nM, 3.09 µM and 1.19 µM.
The corresponding values for `COCn1c(Cl)nc2c(c(-c3cc(Cl)c(O)c(C(N)=O)c3)cn2CC(=O)Nc2cc(N3CCN(C)C[C@@H]3C)ncc2Cl)c1=O` [Compound I-323] are 100 nM, 1.09 µM and 0.914 µM.
On to `CN1CC2CC1CN2c1cc(NC(=O)Cn2cc(-c3cc(C(N)=O)c(O)c(F)c3F)c3c(=O)n(C)cnc32)c(Cl)cn1` (stereo not drawn) [Compound I-324], for which binding at BCL6 BTB domain was characterised by a dissociation constant (Kd) of 264 nM. The EC50 in test [1] stood at 10 µM. Also, in the test on Karpas422 cells, the IC50 was found to be 10 µM.
As to `CN1CCOC2CN(c3cc(NC(=O)Cn4cc(-c5cc(C(N)=O)c(O)c(F)c5F)c5c(=O)n(C)cnc54)c(Cl)cn3)CC21` (stereo not drawn) [Compound I-325], at BCL6 BTB domain, binding was put at a Kd of 40.8 nM. Besides, in test [1], the concentration giving a half-maximal response (EC50) worked out at 2 µM. In the test with Karpas422 cells, the IC50 is 1.13 µM.
`CN(C)C1CN(c2cc(NC(=O)Cn3cc(-c4cc(C(N)=O)c(O)c(F)c4F)c4c(=O)n(C)cnc43)c(Cl)cn2)C1` [Compound I-326]: on BCL6 BTB domain, the Kd stood at 64.5 nM. For the same compound, the EC50 in test [1] was 2.35 µM. Also, in the test with Karpas422 cells, the half-maximal inhibitory concentration (IC50) stood at 2 µM.
The like results for `CN1CCN(c2cc(NC(=O)Cn3cc(-c4cc(C(N)=O)c(O)c(F)c4F)c4c(=O)n(C)cnc43)c(Cl)cn2)C(C)(C)C1` [Compound I-327] were, in that order, 271 nM, 3 µM and 2.07 µM.
On to `Cn1cnc2c(c(-c3cc(Cl)c(O)c(C(N)=O)c3)cn2CC(=O)Nc2nc(N3CCOCC3)c(F)cc2Cl)c1=O` [Compound I-328], for which the equilibrium dissociation constant (Kd) at BCL6 BTB domain is 239 nM. Also, the 50% effective concentration (EC50) in test [1] is 3.76 µM. In the test with Karpas422 cells, the IC50 was found to be 2.66 µM.
The like results for `CN1CCOC2CN(c3cc(NC(=O)Cn4cc(-c5cc(Cl)c(O)c(C(N)=O)c5)c5c(=O)n(C)cnc54)c(Cl)cn3)CC21` (stereo not drawn) [Compound I-329] were, in that order, 13.4 nM, 0.345 µM and 0.173 µM.
The like results for `CN(C)CC1COCCN1c1cc(NC(=O)Cn2cc(-c3cc(Cl)c(O)c(C(N)=O)c3)c3c(=O)n(C)cnc32)c(Cl)cn1` (stereo not drawn) [Compound I-330] were, in that order, 39.4 nM, 0.89 µM and 0.56 µM.
The like results for `CCN1CCN(c2cc(NC(=O)Cn3cc(-c4cc(Cl)c(O)c(C(N)=O)c4)c4c(=O)n(C)cnc43)c(Cl)cn2)[C@@H](C)C1` [Compound I-331] were, in that order, 17.8 nM, 0.254 µM and 0.176 µM.
At BCL6 BTB domain, `Cc1cc(NC(=O)Cn2cc(-c3cc(C(N)=O)c(O)c(F)c3F)c3c(=O)n(C)cnc32)c(Cl)cn1` [Compound I-333] returned a Kd of 145 nM. Further, the EC50 in test [1] was determined as 2.42 µM. Moreover, the half-maximal inhibitory concentration (IC50) with Karpas422 cells stood at 4.21 µM.
The corresponding values for `Cc1cc(NC(=O)Cn2cc(-c3cc(Cl)c(O)c(C(N)=O)c3)c3c(=O)n(C)cnc32)c(Cl)cn1` [Compound I-334] are 30.5 nM, 0.475 µM and 0.829 µM.
The corresponding values for `C[C@H]1CNCCN1c1cc(NC(=O)Cn2cc(-c3cc(C(N)=O)c(O)c(F)c3F)c3c(=O)n(C)cnc32)c(Cl)cn1` [Compound I-335] are 24.6 nM, 6.92 µM and 5.1 µM.
The like results for `CC1CN(C)CC(C)N1c1cc(NC(=O)Cn2cc(-c3cc(Cl)c(O)c(C(N)=O)c3)c3c(=O)n(C)cnc32)c(Cl)cn1` (stereo not drawn) [Compound I-340] were, in that order, 11.6 nM, 0.0724 µM and 0.0759 µM.
As for `C[C@H]1CNCCN1c1cc(NC(=O)Cn2cc(-c3cc(Cl)c(O)c(C(N)=O)c3)c3c(=O)n(C)cnc32)c(Cl)cn1` [Compound I-342], binding on BCL6 BTB domain was put at a Kd of 11.3 nM. The EC50 in test [1] was 0.312 µM. The IC50 in the test on Karpas422 cells is 0.27 µM.
`C[C@H]1CN(CC2CC2)CCN1c1cc(NC(=O)Cn2cc(-c3cc(Cl)c(O)c(C(N)=O)c3)c3c(=O)n(C)c(C(F)(F)F)nc32)c(Cl)cn1` [Compound I-343] returned a dissociation constant (Kd) on BCL6 BTB domain of 180 nM. The EC50 in test [1] came out at 0.641 µM. Also, the IC50 with Karpas422 cells is 0.383 µM.
The corresponding values for `Cc1nc2c(c(-c3cc(C(N)=O)c(O)c(F)c3F)cn2CC(=O)Nc2cc(N3CCN(C4COC4)C[C@@H]3C)ncc2Cl)c(=O)n1C` [Compound I-344] are 13.8 nM, 0.317 µM and 0.701 µM.
The like results for `C[C@H]1CN(C2COC2)CCN1c1cc(NC(=O)Cn2cc(-c3cc(Cl)c(O)c(C(N)=O)c3)c3c(=O)n(C)cnc32)c(Cl)cn1` [Compound I-345] were, in that order, 6.15 nM, 0.0927 µM and 0.166 µM.
